Experimental data as given in EP4667483A1, “HUMAN TRANSFERRIN RECEPTOR-BINDING PEPTIDE” (JCR Pharmaceuticals Co., Ltd., priority 2023, dated 2024).
Bridge positions count the residues as written; N and C are the ends. Square brackets hold non-standard residues; d marks the D form. Peptide text beside a SMILES is read from it. * marks the point of attachment. Trp(1-CH2COOH) = N[C@@H](Cc1cn(CC(=O)O)c2ccccc12)C(=O)O; CH2CON(CH2CH2)2NCH2COOH = O=C(O)CN1CCN(C(=O)C*)CC1; NMePhe(4-COOH) = CN[C@@H](Cc1ccc(C(=O)O)cc1)C(=O)O; Nle(6-morpholino) = N[C@@H](CCCCN1CCOCC1)C(=O)O; Phe(3-COOH) = N[C@@H](Cc1cccc(C(=O)O)c1)C(=O)O; Trp(7-aza) = N[C@@H](Cc1c[nH]c2ncccc12)C(=O)O; NMePhe(3-Cl) = CN[C@@H](Cc1cccc(Cl)c1)C(=O)O; 3Pal(6-NH2) = Nc1ccc(C[C@H](N)C(=O)O)cn1; NMeW = CN[C@@H](Cc1c[nH]c2ccccc12)C(=O)O; NMeY = CN[C@@H](Cc1ccc(O)cc1)C(=O)O; Nva(3-Et) = CCC(CC)[C@H](N)C(=O)O; 4Pal = N[C@@H](Cc1ccncc1)C(=O)O; PEG4 = NCCOCCOCCOCCOCCC(=O)O

What was measured:
[1] = target: T1, human transferrin receptor (hTfR) (Homo sapiens, UniProt P02786); experiment: SPR measurement under pH 7.4 conditions (Biacore T200, CM3 chip, hTfR captured by His Tag antibody); format: binding; conditions: pH 7.4, single-cycle kinetics; read-out: hTfR SPR pH7.4 KD
[2] = target: T1, human transferrin receptor (hTfR); experiment: SPR measurement under pH 6.0 conditions (Biacore T200, NTA chip, immobilized hTfR); format: binding; conditions: pH 6.0, single-cycle kinetics; read-out: hTfR SPR pH6.0 KD

T1 sequence (P02786 whole entry): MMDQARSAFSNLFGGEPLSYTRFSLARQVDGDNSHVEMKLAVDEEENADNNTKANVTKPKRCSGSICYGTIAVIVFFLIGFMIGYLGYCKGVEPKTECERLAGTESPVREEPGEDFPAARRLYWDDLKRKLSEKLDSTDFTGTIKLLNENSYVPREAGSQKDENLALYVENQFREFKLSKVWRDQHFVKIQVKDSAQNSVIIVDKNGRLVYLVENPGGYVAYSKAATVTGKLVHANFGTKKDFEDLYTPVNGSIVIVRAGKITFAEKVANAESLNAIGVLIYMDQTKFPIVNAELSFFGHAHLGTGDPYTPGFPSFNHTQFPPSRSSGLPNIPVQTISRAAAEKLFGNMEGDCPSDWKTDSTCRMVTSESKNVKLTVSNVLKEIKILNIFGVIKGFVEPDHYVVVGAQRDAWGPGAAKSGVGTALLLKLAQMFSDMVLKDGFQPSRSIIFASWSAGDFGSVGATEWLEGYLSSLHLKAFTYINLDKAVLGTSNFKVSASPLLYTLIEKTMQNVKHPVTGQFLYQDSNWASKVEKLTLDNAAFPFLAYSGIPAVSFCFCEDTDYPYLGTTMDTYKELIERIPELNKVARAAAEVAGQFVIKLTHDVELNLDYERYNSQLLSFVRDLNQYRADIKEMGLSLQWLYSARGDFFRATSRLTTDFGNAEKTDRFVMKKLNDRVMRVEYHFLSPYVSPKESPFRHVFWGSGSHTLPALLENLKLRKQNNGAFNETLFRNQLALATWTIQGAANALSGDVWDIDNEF

Compound | Kd [1] | Kd [2]
CCC(CC)[C@@H]1NC(=O)[C@H](Cc2ccc(OCC(=O)N3CCN(CC(=O)O)CC3)cc2)NC(=O)[C@H](Cc2ccc(N)nc2)NC(=O)[C@H](CC(N)=O)NC(=O)[C@H](Cc2cn(CC(=O)O)c3ccccc23)NC(=O)[C@H](C(C)C)NC(=O)[C@H](Cc2cccc(Cl)c2)N(C)C(=O)[C@H](C(C)C)NC(=O)[C@H](C)NC(=O)CSC[C@@H](C(=O)NCCOCCOCCOCCOCCC(N)=O)NC(=O)[C@H](Cc2ccc(O)cc2)N(C)C(=O)[C@H](Cc2cccc(C(=O)O)c2)NC(=O)[C@H](CCCCN2CCOCC2)NC(=O)[C@H](CCC(N)=O)NC(=O)[C@H]([C@@H](C)CC)NC1=O [compound 52] ({CH2CO}-AV[NMePhe(3-Cl)]V[Trp(1-CH2COOH)]N[3Pal(6-NH2)]Y(CH2CON(CH2CH2)2NCH2COOH)[Nva(3-Et)]IQ[Nle(6-morpholino)][Phe(3-COOH)][NMeY]C[PEG4]-NH2; thioether N-15) | 5820 nM | 626 nM
CCC(CC)[C@@H]1NC(=O)[C@H](Cc2ccc(OC)cc2)NC(=O)[C@H](Cc2ccc(O)cc2)NC(=O)[C@H](CC(N)=O)NC(=O)[C@H](Cc2c[nH]c3ncccc23)NC(=O)[C@H](C(C)C)NC(=O)[C@H](Cc2cccc(Cl)c2)N(C)C(=O)[C@H](C(C)C)NC(=O)[C@H](C)NC(=O)CSC[C@@H](C(=O)NCCOCCOCCOCCOCCC(N)=O)NC(=O)[C@H](Cc2ccc(O)cc2)N(C)C(=O)[C@H](Cc2ccncc2)NC(=O)[C@H](CCCNC(=N)N)NC(=O)[C@H](CCCCN2CCOCC2)NC(=O)[C@H]([C@@H](C)CC)NC1=O [compound 54] ({CH2CO}-AV[NMePhe(3-Cl)]V[Trp(7-aza)]NYY(Me)[Nva(3-Et)]I[Nle(6-morpholino)]R[4Pal][NMeY]C[PEG4]-NH2; thioether N-15) | 1.38 nM | 9.2 nM
CCC(CC)[C@@H]1NC(=O)[C@H](Cc2ccc(OCC(=O)N3CCN(CC(=O)O)CC3)cc2)NC(=O)[C@H](Cc2ccc(O)cc2)NC(=O)[C@H](CC(N)=O)NC(=O)[C@H](Cc2cn(CC(=O)O)c3ccccc23)NC(=O)[C@H](C(C)C)NC(=O)[C@H](Cc2cccc(Cl)c2)N(C)C(=O)[C@H](C(C)C)NC(=O)[C@H](C)NC(=O)CSC[C@@H](C(=O)NCCOCCOCCOCCOCCC(N)=O)NC(=O)[C@H](Cc2ccc(C(=O)O)cc2)N(C)C(=O)[C@H](Cc2cccc(C(=O)O)c2)NC(=O)[C@H](CCCCN2CCOCC2)NC(=O)[C@H](CCCCN2CCOCC2)NC(=O)[C@H]([C@@H](C)CC)NC1=O [compound 55] ({CH2CO}-AV[NMePhe(3-Cl)]V[Trp(1-CH2COOH)]NYY(CH2CON(CH2CH2)2NCH2COOH)[Nva(3-Et)]I[Nle(6-morpholino)][Nle(6-morpholino)][Phe(3-COOH)][NMePhe(4-COOH)]C[PEG4]-NH2; thioether N-15) | 26.4 nM | 38.5 nM
CCC(CC)[C@@H]1NC(=O)[C@H](Cc2ccc(OCC(=O)N3CCN(CC(=O)O)CC3)cc2)NC(=O)[C@H](Cc2ccc(O)cc2)NC(=O)[C@H](CC(N)=O)NC(=O)[C@H](Cc2cn(CC(=O)O)c3ccccc23)NC(=O)[C@H](C(C)C)NC(=O)[C@H](Cc2cccc(Cl)c2)N(C)C(=O)[C@H](C(C)C)NC(=O)[C@H](C)NC(=O)CSC[C@@H](C(=O)NCCOCCOCCOCCOCCC(N)=O)NC(=O)[C@H](Cc2ccc(C(=O)O)cc2)N(C)C(=O)[C@H](Cc2ccncc2)NC(=O)[C@H](CCCCN2CCOCC2)NC(=O)[C@H](CCCCN2CCOCC2)NC(=O)[C@H]([C@@H](C)CC)NC1=O [compound 56] ({CH2CO}-AV[NMePhe(3-Cl)]V[Trp(1-CH2COOH)]NYY(CH2CON(CH2CH2)2NCH2COOH)[Nva(3-Et)]I[Nle(6-morpholino)][Nle(6-morpholino)][4Pal][NMePhe(4-COOH)]C[PEG4]-NH2; thioether N-15) | 12.6 nM | 72 nM
CC[C@H](C)[C@@H]1NC(=O)[C@H](Cc2ccc(OC)cc2)NC(=O)[C@H](Cc2ccc(N)nc2)NC(=O)[C@H](CC(N)=O)NC(=O)[C@H](Cc2c[nH]c3ccccc23)NC(=O)[C@H](C(C)C)NC(=O)[C@H](Cc2cccc(Cl)c2)N(C)C(=O)[C@H](C(C)C)NC(=O)[C@H](C)NC(=O)CSC[C@@H](C(=O)NCCOCCOCCOCCOCCC(N)=O)NC(=O)[C@H](Cc2ccc(O)cc2)N(C)C(=O)[C@H](Cc2ccncc2)NC(=O)[C@H](CCCNC(=N)N)NC(=O)[C@H](CCCCN)NC(=O)[C@H]([C@@H](C)CC)NC1=O [compound 57] ({CH2CO}-AV[NMePhe(3-Cl)]VWN[3Pal(6-NH2)]Y(Me)IIKR[4Pal][NMeY]C[PEG4]-NH2; thioether N-15) | 0.971 nM | 5.4 nM
CC[C@H](C)[C@@H]1NC(=O)[C@H](Cc2ccc(OC)cc2)NC(=O)[C@H](Cc2ccc(N)nc2)NC(=O)[C@H](CC(N)=O)NC(=O)[C@H](Cc2c[nH]c3ccccc23)N(C)C(=O)[C@H](C(C)C)NC(=O)[C@H](Cc2cccc(Cl)c2)N(C)C(=O)[C@H](C(C)C)NC(=O)[C@H](C)NC(=O)CSC[C@@H](C(=O)NCCOCCOCCOCCOCCC(N)=O)NC(=O)[C@H](Cc2ccc(O)cc2)N(C)C(=O)[C@H](Cc2ccncc2)NC(=O)[C@H](CCCNC(=N)N)NC(=O)[C@H](CCCCN)NC(=O)[C@H]([C@@H](C)CC)NC1=O [compound 58] ({CH2CO}-AV[NMePhe(3-Cl)]V[NMeW]N[3Pal(6-NH2)]Y(Me)IIKR[4Pal][NMeY]C[PEG4]-NH2; thioether N-15) | 1.34 nM | 5.39 nM
CC[C@H](C)[C@@H]1NC(=O)[C@H](Cc2ccc(OC)cc2)NC(=O)[C@H](Cc2ccc(N)nc2)NC(=O)[C@H](CC(N)=O)NC(=O)[C@H](Cc2c[nH]c3ccccc23)NC(=O)[C@H](C(C)C)NC(=O)[C@H](Cc2cccc(Cl)c2)N(C)C(=O)[C@H](C(C)C)NC(=O)[C@H](C)NC(=O)CSC[C@@H](C(=O)NCCOCCOCCOCCOCCC(N)=O)NC(=O)[C@H](Cc2ccc(C(=O)O)cc2)N(C)C(=O)[C@H](Cc2ccncc2)NC(=O)[C@H](CCCNC(=N)N)NC(=O)[C@H](CCCCN)NC(=O)[C@H]([C@@H](C)CC)NC1=O [compound 59] ({CH2CO}-AV[NMePhe(3-Cl)]VWN[3Pal(6-NH2)]Y(Me)IIKR[4Pal][NMePhe(4-COOH)]C[PEG4]-NH2; thioether N-15) | 1.46 nM | 9.57 nM
CC[C@H](C)[C@@H]1NC(=O)[C@H](Cc2ccc(OC)cc2)NC(=O)[C@H](Cc2ccc(N)nc2)NC(=O)[C@H](CC(N)=O)NC(=O)[C@H](Cc2c[nH]c3ccccc23)N(C)C(=O)[C@H](C(C)C)NC(=O)[C@H](Cc2cccc(Cl)c2)N(C)C(=O)[C@H](C(C)C)NC(=O)[C@H](C)NC(=O)CSC[C@@H](C(=O)NCCOCCOCCOCCOCCC(N)=O)NC(=O)[C@H](Cc2ccc(C(=O)O)cc2)N(C)C(=O)[C@H](Cc2ccncc2)NC(=O)[C@H](CCCNC(=N)N)NC(=O)[C@H](CCCCN)NC(=O)[C@H]([C@@H](C)CC)NC1=O [compound 60] ({CH2CO}-AV[NMePhe(3-Cl)]V[NMeW]N[3Pal(6-NH2)]Y(Me)IIKR[4Pal][NMePhe(4-COOH)]C[PEG4]-NH2; thioether N-15) | 0.755 nM | 4.71 nM
CC[C@H](C)[C@@H]1NC(=O)[C@H](Cc2ccc(OCC(=O)O)cc2)NC(=O)[C@H](Cc2ccc(O)cc2)NC(=O)[C@H](CC(N)=O)NC(=O)[C@H](Cc2c[nH]c3ncccc23)NC(=O)[C@H](C(C)C)NC(=O)[C@H](Cc2cccc(Cl)c2)N(C)C(=O)[C@H](C(C)C)NC(=O)[C@H](C)NC(=O)CSC[C@@H](C(=O)NCCOCCOCCOCCOCCC(N)=O)NC(=O)[C@H](Cc2ccc(O)cc2)N(C)C(=O)[C@H](Cc2ccncc2)NC(=O)[C@H](CCCNC(=N)N)NC(=O)[C@H](CCC(=O)NCCOCCOCCOCCOCCOCCOCCOCCOCCC(=O)O)NC(=O)[C@H]([C@@H](C)CC)NC1=O [compound 62] | 28.5 nM | 92.1 nM
